# Test results taken from ChEMBL document CHEMBL1159007, “Isolation and identification of xochitloldione and isoxochitlolone from Cnidosculus urens” (J Nat Prod, 1992).
# The source made the active and inactive calls. The calls are words filed in the database; no cut-off is given here.
# What was measured:
# Staphylococcus aureus = experiment: Antimicrobial activity against Staphylococcus aureus; assay type: functional, organism-based
# Escherichia coli = experiment: Antimicrobial activity against Escherichia coli; assay type: functional, organism-based
smiles,measurement,setting,value
Cc1cc2c(cc1O)C=C1C=CCC(C)(C)[C@@H]1CC2=O,Activity,Staphylococcus aureus,Active
same,Activity,Escherichia coli,Active
